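The compound was tested at five concentrations on cells cultured in 96-well plates, with a 48-hour exposure period. GI50 is the concentration that inhibits growth by half.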 Calls of active or inactive are those of the source. Rule as the data show it: active = GI50 up to about 1.1 µM and inactive = higher.
Experiments:
Assay in all cases: NCI tumour cell line growth inhibition, 48 h
HT-29 = test system: HT-29
DU-145 = test system: DU-145
SW-620 = test system: SW-620
NCI-H460 = test system: NCI-H460
HL-60 = test system: HL-60
786-0 = test system: 786-0
CCRF-CEM = test system: CCRF-CEM
A498 = test system: A498
KM12 = test system: KM12
HOP-92 = test system: HOP-92
OVCAR-5 = test system: OVCAR-5
MDA-N = test system: MDA-N
M14 = test system: M14
LOX IMVI = test system: LOX IMVI
MDA-MB-231 = test system: MDA-MB-231
RPMI-8226 = test system: RPMI-8226
SN12C = test system: SN12C
U-251 = test system: U-251
UO-31 = test system: UO-31
SK-MEL-28 = test system: SK-MEL-28
SF-539 = test system: SF-539
BT-549 = test system: BT-549
COLO 205 = test system: COLO 205
PC-3 = test system: PC-3
CAKI-1 = test system: CAKI-1
SR = test system: SR
UACC-257 = test system: UACC-257
T47D = test system: T47D
Malme-3M = test system: Malme-3M
SK-MEL-2 = test system: SK-MEL-2
MOLT-4 = test system: MOLT-4
RXF 393 = test system: RXF 393
SNB-75 = test system: SNB-75
MCF7 = test system: MCF7
K562 = test system: K562
NCI/ADR-RES = test system: NCI/ADR-RES
MDA-MB-435 = test system: MDA-MB-435
HOP-62 = test system: HOP-62
ACHN = test system: ACHN
SNB-19 = test system: SNB-19
A549 = test system: A549
NCI-H522 = test system: NCI-H522
SK-MEL-5 = test system: SK-MEL-5
HCT-116 = test system: HCT-116
OVCAR-8 = test system: OVCAR-8
NCI-H23 = test system: NCI-H23
SK-OV-3 = test system: SK-OV-3
HCT-15 = test system: HCT-15
UACC-62 = test system: UACC-62
SF-295 = test system: SF-295
SF-268 = test system: SF-268
OVCAR-3 = test system: OVCAR-3
OVCAR-4 = test system: OVCAR-4
HCC 2998 = test system: HCC 2998
TK-10 = test system: TK-10
Hs-578T = test system: Hs-578T
NCI-H226 = test system: NCI-H226
IGROV-1 = test system: IGROV-1

## C=C[C@H]1CN2CCc3c([nH]c4c([C@@H]5CCCN5C)c(O)ccc34)[C@@H]2C[C@@H]1C[C@H]1c2[nH]c3ccccc3c2CCN1C
HT-29
  GI50: 1.28 µM (inactive)
DU-145
  GI50: 1.69 µM (inactive)
SW-620
  GI50: 1.13 µM (inactive)
NCI-H460
  GI50: 1.39 µM (inactive)
HL-60
  GI50: 524 nM (active)
786-0
  GI50: 1.4 µM (inactive)
CCRF-CEM
  GI50: 4.27 nM (active)
A498
  GI50: 1.85 µM (inactive)
KM12
  GI50: 1.47 µM (inactive)
HOP-92
  GI50: 1.4 µM (inactive)
OVCAR-5
  GI50: 1.79 µM (inactive)
MDA-N
  GI50: 1.67 µM (inactive)
M14
  GI50: 1.09 µM (active)
LOX IMVI
  GI50: 1.39 µM (inactive)
MDA-MB-231
  GI50: 1.76 µM (inactive)
RPMI-8226
  GI50: 478 nM (active)
SN12C
  GI50: 1.82 µM (inactive)
U-251
  GI50: 1.38 µM (inactive)
UO-31
  GI50: 1.63 µM (inactive)
SK-MEL-28
  GI50: 1.79 µM (inactive)
SF-539
  GI50: 1.64 µM (inactive)
BT-549
  GI50: 1.47 µM (inactive)
COLO 205
  GI50: 1.61 µM (inactive)
PC-3
  GI50: 1.47 µM (inactive)
CAKI-1
  GI50: 1.71 µM (inactive)
SR
  GI50: 256 nM (active)
UACC-257
  GI50: 1.91 µM (inactive)
T47D
  GI50: 1.95 µM (inactive)
Malme-3M
  GI50: 1.85 µM (inactive)
SK-MEL-2
  GI50: 1.85 µM (inactive)
MOLT-4
  GI50: 692 nM (active)
RXF 393
  GI50: 274 nM (active)
SNB-75
  GI50: 1.22 µM (inactive)
MCF7
  GI50: 1.96 µM (inactive)
K562
  GI50: 211 nM (active)
NCI/ADR-RES
  GI50: 1.85 µM (inactive)
MDA-MB-435
  GI50: 1.51 µM (inactive)
HOP-62
  GI50: 1.35 µM (inactive)
ACHN
  GI50: 1.65 µM (inactive)
SNB-19
  GI50: 1.64 µM (inactive)
A549
  GI50: 1.5 µM (inactive)
NCI-H522
  GI50: 1.85 µM (inactive)
SK-MEL-5
  GI50: 1.57 µM (inactive)
HCT-116
  GI50: 366 nM (active)
OVCAR-8
  GI50: 1.4 µM (inactive)
NCI-H23
  GI50: 1.82 µM (inactive)
SK-OV-3
  GI50: 1.7 µM (inactive)
HCT-15
  GI50: 1280 nM
UACC-62
  GI50: 1.83 µM (inactive)
SF-295
  GI50: 1.57 µM (inactive)
SF-268
  GI50: 1.74 µM (inactive)
OVCAR-3
  GI50: 1.64 µM (inactive)
OVCAR-4
  GI50: 1.71 µM (inactive)
HCC 2998
  GI50: 1.72 µM (inactive)
TK-10
  GI50: 1.57 µM (inactive)
Hs-578T
  GI50: 1.67 µM (inactive)
NCI-H226
  GI50: 2.05 µM (inactive)
IGROV-1
  GI50: 1.32 µM (inactive)

Source: ChEMBL document CHEMBL1201862, “PubChem BioAssay data set” (2004)
